According to ChEMBL document CHEMBL2424541, “Anti-inflammatory effects of extracellular cyclosporins are exclusively mediated by CD147” (J Med Chem, 2013):
Values belong to the compound of their own block, whether it stands above or below them. The source made the active and inactive calls. No cut-off for these calls is given here.

Legend:
[1] = species: Homo sapiens; assay: Inhibition of calcineurin phosphatase activity (unknown origin) assessed as R2 phosphopeptide dephosphorylation up to 10 uM after 30 mins by malachite green staining assay in presence of calmodulin and CypA
[2] = (§1) Cellular uptake in human Jurkat T cells assessed as displacemnet of [O-(2-acetamido)-D-serine]8-cyclosporine N-{(5-aminopentyl)-[2,3,6,7-tetrahydro-11-oxo-1H,5H,11Hbenzopyrano(6,7,8-ij)quinolizine-10-carboxyl amide] from intracellular compartments after 90 mins by flow cytometric analysis; format: ADME, cell-based; details: 1.5 h
[3] = molecular target: T1, Peptidyl-prolyl cis-trans isomerase A (Homo sapiens, UniProt P62937); assay: Inhibition of CypA PPIase activity (unknown origin) using Glt-(Ala)n-Pro-Phe-4-nitroanilides as substrate
Target sequence in this assay (P62937 whole entry): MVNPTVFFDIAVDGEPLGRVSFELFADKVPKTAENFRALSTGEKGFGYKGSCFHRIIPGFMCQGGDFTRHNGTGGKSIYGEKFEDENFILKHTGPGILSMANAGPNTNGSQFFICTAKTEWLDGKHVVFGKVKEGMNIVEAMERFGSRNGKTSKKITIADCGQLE

[4] = Inhibition of calcineurin phosphatase activity (unknown origin) assessed as R2 phosphopeptide dephosphorylation after 30 mins by malachite green staining assay in presence of calmodulin and CypA
[5] = tested on: Mus musculus; assay: In vivo inhibition of extracellular cyclophilin-mediated MMP-9 secretion in peritoneal fluid in thioglycollate challenged C57BL6 mouse peritonitis model at 20 mg/kg, ip administered for 3 hrs before thioglycollate challenge by gelatin zymographic analysis; format: functional, organism-based; design: dose 20 mg/kg
[6] = tested on: Leukocyte; assay: Effect on fmlp-induced CD147-deficient mouse leukocytes migration from bone marrow; format: functional
[7] = as §1, with “compartments at 50 fold excess” for “compartments”; format: ADME, cell-based; details: 1.5 h
[8] = tested on: Leukocyte; assay: Effect on FCS-induced CD147-deficient mouse leukocytes migration from bone marrow; format: functional
[9] = tested on: Mus musculus; assay: In vivo inhibition of extracellular cyclophilin-mediated CD11b+ myeloid cells infiltration into TNCB challenged ear in CD147-deficient C57BL6 mouse allergic contact hypersensitivity model at 4 mg/kg, ip bid administered on day 4 to 6 prior to TNCB challenge by immunohistochemical analysis; format: functional, organism-based; design: dose 4 mg/kg
[10] = tested on: Mus musculus; assay: In vivo inhibition of extracellular cyclophilin-mediated monocytes recruitment in peritoneal fluid of thioglycollate challenged C57BL6 mouse peritonitis model at 20 mg/kg, ip administered 3 hrs before thioglycollate challenge measured after 18 hrs; format: functional, organism-based; design: dose 20 mg/kg
[11] = tested on: Mus musculus; assay: In vivo inhibition of extracellular cyclophilin-mediated CD3+ T cells infiltration into TNCB challenged ear in CD147-deficient C57BL6 mouse allergic contact hypersensitivity model at 4 mg/kg, ip bid administered on day 4 to 6 prior to TNCB challenge by immunohistochemical analysis; format: functional, organism-based; design: dose 4 mg/kg; details: T-cell
[12] = tested on: Mus musculus; assay: In vivo inhibition of extracellular cyclophilin-mediated monocytes recruitment in peritoneal fluid in thioglycollate challenged CD147-deficient C57BL6 mouse peritonitis model at 20 mg/kg, ip administered 3 hrs before thioglycollate challenge measured after 18 hrs; format: functional, organism-based; design: dose 20 mg/kg
[13] = tested on: Mus musculus; assay: In vivo inhibition of extracellular cyclophilin-mediated CD3+ T cells infiltration into TNCB challenged ear in C57BL6 mouse allergic contact hypersensitivity model at 4 mg/kg, ip bid administered on day 4 to 6 prior to TNCB challenge by immunohistochemical analysis; format: functional, organism-based; design: dose 4 mg/kg; details: T-cell
[14] = tested on: Mus musculus; assay: In vivo inhibition of extracellular cyclophilin-mediated neutrophils recruitment in peritoneal fluid of thioglycollate challenged C57BL6 mouse peritonitis model at 20 mg/kg, ip administered 3 hrs before thioglycollate challenge measured after 18 hrs; format: functional, organism-based; design: dose 20 mg/kg
[15] = molecular target: T1, Peptidyl-prolyl cis-trans isomerase A; details: 1 uM
Target sequence in this assay (P62937 whole entry, looked up): as the sequence (P62937 whole entry) above
Description: Inhibition of recombinant human CypA-mediated leukocyte migration from mouse bone marrow at 1 uM after 2 hrs

[16] = tested on: Leukocyte; assay: Effect on FCS-induced wild type mouse leukocytes migration from bone marrow; format: functional
[17] = molecular target: T1, Peptidyl-prolyl cis-trans isomerase A; details: HeLa, 2 uM
Target sequence in this assay (P62937 whole entry, looked up): as the sequence (P62937 whole entry) above
Description: Inhibition of CypA-mediated ERK phosphorylation in serum-starved human HeLa cells at 2 uM after 5 mins by Western blotting analysis

[18] = tested on: Mus musculus; assay: In vivo inhibition of extracellular cyclophilin-mediated neutrophil recruitment in peritoneal fluid in thioglycollate challenged CD147-deficient C57BL6 mouse peritonitis model at 20 mg/kg, ip administered 3 hrs before thioglycollate challenge measured after 18 hrs; format: functional, organism-based; design: dose 20 mg/kg
[19] = tested on: Mus musculus; assay: In vivo inhibition of extracellular cyclophilin-mediated IL-6 secretion in peritoneal fluid in thioglycollate challenged C57BL6 mouse peritonitis model at 20 mg/kg, ip administered for 3 hrs before thioglycollate challenge by ELISA; format: functional, organism-based; design: dose 20 mg/kg
[20] = molecular target: T1, Peptidyl-prolyl cis-trans isomerase A; details: Spleen, T-cell, 1 uM
Target sequence in this assay (P62937 whole entry, looked up): as the sequence (P62937 whole entry) above
Description: Inhibition of recombinant human CypA-mediated PMA/ionomycin-induced CD3+ T cell migration from mouse spleen at 1 uM after 2 hrs

[21] = molecular target: T1, Peptidyl-prolyl cis-trans isomerase A; details: 1 uM; remark: listed apart in the source
Target sequence in this assay (P62937 whole entry, looked up): as the sequence (P62937 whole entry) above
Description: Inhibition of recombinant human CypA-mediated CD147-deficient leukocyte migration from mouse bone marrow at 1 uM after 2 hrs

[22] = molecular target: T1, Peptidyl-prolyl cis-trans isomerase A; details: myeloid, 1 uM
Target sequence in this assay (P62937 whole entry, looked up): as the sequence (P62937 whole entry) above
Description: Inhibition of recombinant human CypA-mediated CD11b+ myeloid cell migration from mouse bone marrow at 1 uM after 2 hrs

[23] = tested on: Mus musculus; assay: In vivo inhibition of extracellular cyclophilin-mediated ear swelling in TNCB challenged C57BL6 mouse allergic contact hypersensitivity model at 4 mg/kg, ip bid administered on day 4 to 6 measured after 24 hrs; format: functional, organism-based; design: dose 4 mg/kg
[24] = tested on: Leukocyte; assay: Effect on fmlp-induced wild type mouse leukocytes migration from bone marrow; format: functional
[25] = tested on: Mus musculus; assay: In vivo inhibition of extracellular cyclophilin-mediated CD11b+ myeloid cells infiltration into TNCB challenged ear in C57BL6 mouse allergic contact hypersensitivity model at 4 mg/kg, ip bid administered on day 4 to 6 prior to TNCB challenge by immunohistochemical analysis; format: functional, organism-based; design: dose 4 mg/kg
[26] = molecular target: Peptidyl-prolyl cis-trans isomerase C (Homo sapiens, UniProt P45877); assay: Inhibition of CypC PPIase activity (unknown origin)
[27] = tested on: Mus musculus; assay: In vivo inhibition of extracellular cyclophilin-mediated ear swelling in CD147-deficient TNCB challenged C57BL6 mouse at 4 mg/kg, ip bid administered on day 4 to 6; format: functional, organism-based; design: dose 4 mg/kg

Chain of Peptidyl-prolyl cis-trans isomerase C (P45877 whole entry): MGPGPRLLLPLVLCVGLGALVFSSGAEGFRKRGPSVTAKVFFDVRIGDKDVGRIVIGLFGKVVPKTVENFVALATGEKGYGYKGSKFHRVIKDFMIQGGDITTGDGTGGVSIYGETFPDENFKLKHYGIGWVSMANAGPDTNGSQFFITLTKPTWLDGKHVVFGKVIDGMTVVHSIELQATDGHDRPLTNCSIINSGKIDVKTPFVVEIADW

inhibition [1]: inactive
Drug uptake [2]: Active
SMILES: CC[C@@H]1NC(=O)[C@H]([C@H](O)[C@H](C)CC2=Nc3ccccc3CN2)N(C)C(=O)[C@H](C(C)C)N(C)C(=O)[C@H](CC(C)C)N(C)C(=O)[C@H](CC(C)C)N(C)C(=O)[C@@H](C)NC(=O)[C@H](C)NC(=O)[C@H](CC(C)C)N(C)C(=O)[C@H](C(C)C)NC(=O)[C@H](CC(C)C)N(C)C(=O)CN(C)C1=O

SMILES: CC[C@@H]1NC(=O)[C@H]([C@H](O)[C@H](C)Cc2nc3ccc(C(=O)OC)cc3[nH]2)N(C)C(=O)[C@H](C(C)C)N(C)C(=O)[C@H](CC(C)C)N(C)C(=O)[C@H](CC(C)C)N(C)C(=O)[C@@H](C)NC(=O)[C@H](C)NC(=O)[C@H](CC(C)C)N(C)C(=O)[C@H](C(C)C)NC(=O)[C@H](CC(C)C)N(C)C(=O)CN(C)C1=O
Drug uptake [2]: Active
Ki [3]: 0.0118 µM
IC50 [4]: 6.9 µM

Drug uptake [2]: Active
Ki [3]: 0.0124 µM
IC50 [4]: 3.4 µM
SMILES: CC[C@@H]1NC(=O)[C@H]([C@H](O)[C@H](C)Cc2nc3ccc(C)cc3[nH]2)N(C)C(=O)[C@H](C(C)C)N(C)C(=O)[C@H](CC(C)C)N(C)C(=O)[C@H](CC(C)C)N(C)C(=O)[C@@H](C)NC(=O)[C@H](C)NC(=O)[C@H](CC(C)C)N(C)C(=O)[C@H](C(C)C)NC(=O)[C@H](CC(C)C)N(C)C(=O)CN(C)C1=O

Drug uptake [2]: Active
Ki [3]: 0.0366 µM
IC50 [4]: 4.5 µM
SMILES: CC[C@@H]1NC(=O)[C@H]([C@H](O)[C@H](C)Cc2nc3ccccc3s2)N(C)C(=O)[C@H](C(C)C)N(C)C(=O)[C@H](CC(C)C)N(C)C(=O)[C@H](CC(C)C)N(C)C(=O)[C@@H](C)NC(=O)[C@H](C)NC(=O)[C@H](CC(C)C)N(C)C(=O)[C@H](C(C)C)NC(=O)[C@H](CC(C)C)N(C)C(=O)CN(C)C1=O

Drug uptake [2]: Active
IC50 [4]: 4.6 µM
SMILES: CC[C@@H]1NC(=O)[C@H]([C@H](O)[C@H](C)Cc2nc3ccccc3c(=O)[nH]2)N(C)C(=O)[C@H](C(C)C)N(C)C(=O)[C@H](CC(C)C)N(C)C(=O)[C@H](CC(C)C)N(C)C(=O)[C@@H](C)NC(=O)[C@H](C)NC(=O)[C@H](CC(C)C)N(C)C(=O)[C@H](C(C)C)NC(=O)[C@H](CC(C)C)N(C)C(=O)CN(C)C1=O

Drug uptake [2]: Active
Ki [3]: 0.0439 µM
IC50 [4]: > 10 µM
SMILES: CC[C@@H]1NC(=O)[C@H]([C@H](O)[C@H](C)Cc2nc3ccc(C(C)C)cc3[nH]2)N(C)C(=O)[C@H](C(C)C)N(C)C(=O)[C@H](CC(C)C)N(C)C(=O)[C@H](CC(C)C)N(C)C(=O)[C@@H](C)NC(=O)[C@H](C)NC(=O)[C@H](CC(C)C)N(C)C(=O)[C@H](C(C)C)NC(=O)[C@H](CC(C)C)N(C)C(=O)CN(C)C1=O

Drug uptake [2]: Active
IC50 [4]: 1.2 µM
SMILES: CC[C@@H]1NC(=O)[C@H]([C@H](O)[C@H](C)Cc2nc3ccccc3[nH]2)N(C)C(=O)[C@H](C(C)C)N(C)C(=O)[C@H](CC(C)C)N(C)C(=O)[C@H](CC(C)C)N(C)C(=O)[C@@H](C)NC(=O)[C@H](C)NC(=O)[C@H](CC(C)C)N(C)C(=O)[C@H](C(C)C)NC(=O)[C@H](CC(C)C)N(C)C(=O)CN(C)C1=O

SMILES: CC[C@@H]1NC(=O)[C@H]([C@H](O)[C@H](C)Cc2nc3ccc(C(=O)O)cc3[nH]2)N(C)C(=O)[C@H](C(C)C)N(C)C(=O)[C@H](CC(C)C)N(C)C(=O)[C@H](CC(C)C)N(C)C(=O)[C@@H](C)NC(=O)[C@H](C)NC(=O)[C@H](CC(C)C)N(C)C(=O)[C@H](C(C)C)NC(=O)[C@H](CC(C)C)N(C)C(=O)CN(C)C1=O
inhibition [5]: Active
inhibition [1]: inactive
Activity [6]: inactive
Drug uptake [7]: Not Active
Activity [8]: inactive
inhibition [9]: inactive
inhibition [10]: Active
inhibition [11]: inactive
inhibition [12]: inactive
inhibition [13]: Active
inhibition [14]: Active
inhibition [15]: Active
Activity [16]: inactive
inhibition [17]: Active
Ki [3]: 0.0107 µM
inhibition [18]: inactive
inhibition [19]: Active
inhibition [20]: Active
inhibition [21]: inactive
inhibition [22]: Active
inhibition [23]: Active
Activity [24]: inactive
inhibition [25]: Active
Ki [26]: 0.118 µM
inhibition [27]: inactive
